# In paper PMC9692511, “Coumarin-Based Dual Inhibitors of Human Carbonic Anhydrases and Monoamine Oxidases Featuring Amino Acyl and (Pseudo)-Dipeptidyl Appendages: In Vitro and Computational Studies” (Molecules, 2022):
# Values joined by “and” are separate entries in the source; they are usually repeats but may differ in a detail not shown here. Equal entries are not always repeated. Where two headings read alike, the source gives them in different places.
# Legend:
# hCA IX = biological target: T1, hCA IX (Homo sapiens, UniProt Q16790); experiment: hCA IX inhibition, stopped-flow CO2 hydration assay; type: biochemical; details: for Ki: stopped-flow technique, mean of three independent experiments
# T1 construct: made in house
# Procedure: (§1) An Applied Photophysics stopped-flow instrument was used for measuring hCA-catalyzed CO2 hydration activity. […] However, the background activity from the uncatalyzed reaction was always subtracted when IC50 values were obtained by using the data analysis software for the stopped-flow instrument. […] The uncatalyzed rates were measured in the same manner and were subtracted from the total observed rates. Stock solutions of the inhibitor (0.1 mM) were prepared in distilled-deionized water, and dilutions up to 0.01 nM were performed thereafter with the assay buffer. Inhibitor and enzyme solutions were preincubated together for 15 min at room temperature prior to the assay, to allow for the formation of the E–I complex. The inhibition constants (Ki) were obtained by the nonlinear least-squares methods using PRISM 3 and the Cheng-Prusoff equation as reported earlier and are presented as the mean from at least three different determinations. All hCA isoforms were recombinant proteins obtained in-house, as reported earlier.
# hCA XII = biological target: T2, hCA XII (Homo sapiens, UniProt O43570); experiment: hCA XII inhibition, stopped-flow CO2 hydration assay; type: biochemical; details: for SI hCA XII over hCA I or hCA II: Ki hCA I or II (nM)/Ki hCA XII (nM); for SI hCA XII over hCA IX: Ki hCA IX (nM)/Ki hCA XII (nM)
# T2 construct: made in house
# Procedure: as §1
# hMAO-A = biological target: T3, hMAO-A (Homo sapiens, UniProt P21397); experiment: hMAO-A inhibition, kynuramine fluorescence assay; type: biochemical
# T3 construct: purchased Sigma-Aldrich
# T3 sequence (P21397 1-527): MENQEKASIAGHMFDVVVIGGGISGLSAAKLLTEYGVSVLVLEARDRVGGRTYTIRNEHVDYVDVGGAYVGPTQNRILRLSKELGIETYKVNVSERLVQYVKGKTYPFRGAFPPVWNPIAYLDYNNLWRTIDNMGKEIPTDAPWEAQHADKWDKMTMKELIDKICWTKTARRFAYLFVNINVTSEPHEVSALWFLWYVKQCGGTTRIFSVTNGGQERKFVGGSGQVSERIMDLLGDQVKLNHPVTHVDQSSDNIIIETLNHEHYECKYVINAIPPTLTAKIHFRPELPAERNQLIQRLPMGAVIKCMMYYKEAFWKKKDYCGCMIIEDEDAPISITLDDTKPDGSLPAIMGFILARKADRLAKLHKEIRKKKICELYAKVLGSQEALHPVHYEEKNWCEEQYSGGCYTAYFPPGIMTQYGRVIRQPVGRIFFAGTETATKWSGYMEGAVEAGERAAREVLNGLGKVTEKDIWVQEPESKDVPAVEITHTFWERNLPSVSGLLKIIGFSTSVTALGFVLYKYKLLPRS
# Procedure: (§2) Activity measurements (IC50) for hMAO-A and hMAO-B were carried out as reported in the literature. Recombinant human MAO-A and MAO-B were obtained commercially (Sigma-Aldrich, Cape Town, South Africa) and were used as enzyme sources. Kynuramine is a non-specific substrate and serves as a substrate for both hMAO isoforms. The hMAOs metabolize kynuramine to produce 4-hydroxyquinoline, which was measured at the endpoint of the enzyme reactions by fluorescence spectrophotometry.
# hMAO-B = biological target: T4, hMAO-B (Homo sapiens, UniProt P27338); experiment: hMAO-B inhibition, kynuramine fluorescence assay; type: biochemical; details: recombinant human MAO-B, kynuramine substrate; mean ± SD of three independent experiments
# T4 construct: purchased Sigma-Aldrich
# T4 sequence (P27338 1-520): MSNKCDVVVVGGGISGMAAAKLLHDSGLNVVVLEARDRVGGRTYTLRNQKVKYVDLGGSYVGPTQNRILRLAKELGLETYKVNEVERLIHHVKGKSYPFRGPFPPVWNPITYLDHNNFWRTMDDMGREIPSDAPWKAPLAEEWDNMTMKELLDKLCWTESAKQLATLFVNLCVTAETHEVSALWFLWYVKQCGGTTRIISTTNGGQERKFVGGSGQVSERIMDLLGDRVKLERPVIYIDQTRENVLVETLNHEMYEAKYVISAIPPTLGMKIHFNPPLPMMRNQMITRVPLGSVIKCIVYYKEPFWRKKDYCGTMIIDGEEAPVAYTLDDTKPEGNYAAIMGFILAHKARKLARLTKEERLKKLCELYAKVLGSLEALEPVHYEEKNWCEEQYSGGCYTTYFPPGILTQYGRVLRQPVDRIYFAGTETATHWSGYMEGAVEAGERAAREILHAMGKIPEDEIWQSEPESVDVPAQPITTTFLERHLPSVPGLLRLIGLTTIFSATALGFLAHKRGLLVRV
# Procedure: as §2
# hCA II = biological target: T5, hCA II (Homo sapiens, UniProt P00918); experiment: hCA II inhibition, stopped-flow CO2 hydration assay; type: biochemical; details: stopped-flow technique, mean of three independent experiments
# T5 construct: made in house
# Procedure: as §1
# hCA I = biological target: T6, hCA I (Homo sapiens, UniProt P00915); experiment: hCA I inhibition, stopped-flow CO2 hydration assay; type: biochemical; details: stopped-flow technique, mean of three independent experiments
# T6 construct: made in house
# Procedure: as §1
# [1] = recombinant human MAO-A, kynuramine substrate, mean ± SD of three independent experiments
# [2] = Ki hCA I or II (nM)/Ki hCA IX (nM)
# [3] = stopped-flow technique, mean of three independent experiments, read-out: Ki hCA XII
# T2 sequence (O43570 25-354): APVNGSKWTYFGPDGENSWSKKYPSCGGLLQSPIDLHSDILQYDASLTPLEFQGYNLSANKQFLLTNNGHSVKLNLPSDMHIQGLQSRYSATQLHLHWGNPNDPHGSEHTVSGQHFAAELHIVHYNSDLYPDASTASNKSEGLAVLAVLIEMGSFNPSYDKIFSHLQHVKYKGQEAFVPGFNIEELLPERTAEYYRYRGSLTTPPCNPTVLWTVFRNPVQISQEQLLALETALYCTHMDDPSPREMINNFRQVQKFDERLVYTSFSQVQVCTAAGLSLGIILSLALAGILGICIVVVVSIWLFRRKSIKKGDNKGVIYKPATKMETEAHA
# T6 sequence (P00915 whole entry): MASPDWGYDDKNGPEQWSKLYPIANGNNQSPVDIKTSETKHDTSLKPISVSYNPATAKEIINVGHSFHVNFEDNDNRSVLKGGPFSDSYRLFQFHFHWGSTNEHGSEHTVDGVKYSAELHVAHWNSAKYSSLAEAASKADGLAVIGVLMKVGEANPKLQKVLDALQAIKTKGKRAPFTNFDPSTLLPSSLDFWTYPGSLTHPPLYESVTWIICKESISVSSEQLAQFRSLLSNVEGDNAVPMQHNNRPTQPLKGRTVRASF
SMILES,SI hCA IX over hCA I or hCA II (hCA IX),Ki (hCA IX) [µM],SI hCA XII over hCA I or hCA II (hCA XII),SI hCA XII over hCA IX (hCA XII),IC50 (hMAO-A; [1]),IC50 (hMAO-B) [µM],Ki (hCA II) [µM],Ki (hCA I) [µM],SI hCA IX over hCA I or hCA II (hCA IX; [2]),Ki (hCA XII) [µM],melting point [°C],Ki (hCA XII; [3]) [µM],"SI MAO-B/MAO-A (hMAO-A; IC50 MAO-B/IC50 MAO-A, selectivity for hMAO-A)",MAO-A (IC50 μM) (hMAO-A; [1]),MAO-B (IC50 μM) (hMAO-B)
"Cc1cc(=O)oc2cc(NC(=O)[C@H](C)NC(=O)OCc3ccccc3)ccc12 [Compound 1, Z-Ala-AMC]",>327.9,0.0305,>90.9,0.3,< 10 µM and 9.31 µM,> 100,> 10,> 10,–,–,–,–,–,–,–
"Cc1cc(=O)oc2cc(NC(=O)[C@H](C)NC(=O)OCC3c4ccccc4-c4ccccc43)ccc12 [Compound 2, Fmoc-Ala-AMC]",–,0.091,>268.8,2.4,54.8 ± 0.028 µM,> 100,> 10,> 10,>109.9,0.0372,153 to 155,–,–,–,–
"CC(=O)N[C@@H](C)C(=O)Nc1ccc2c(C)cc(=O)oc2c1 [Compound 6, Ac-Ala-AMC]",–,0.0234,>327.9,0.8,< 10 µM and 1.92 µM,> 100,> 10,> 10,>427.3,–,–,0.0305,52,–,–
"COCc1cc(=O)oc2cc(NC(=O)[C@H](C)NC(C)=O)ccc12 [Compound 7, Ac-Ala-AMMC]",–,0.0294,>213.7,0.6,12 ± 0.693 µM,45.6 ± 1.85,> 10,> 10,>340.1,–,–,0.0468,–,–,–
"CCC(C)C(NC(=O)OCc1ccccc1)C(=O)Nc1ccc2c(COC)cc(=O)oc2c1 (stereo not drawn) [Compound 8, Z-Ile-AMMC]",–,0.0787,>241.0,1.9,47 ± 13.5 µM,> 100,> 10,> 10,>127.1,0.0415,–,–,–,–,–
"COCc1cc(=O)oc2cc(NC(=O)[C@@H](NC(=O)[C@H](C)NC(=O)OCc3ccccc3)C(C)(C)C)ccc12 [Compound 11, Z-Ala-tLeu-AMMC]",–,0.172,>29.7,0.5,41.3 ± 17.8 µM,79.5 ± 7.24,> 10,> 10,>58.3,0.336,205 to 209,–,–,–,–
"COC(=O)CNC(=O)N[C@@H](C)C(=O)Nc1ccc2c(C)cc(=O)oc2c1 [Compound 16, MeO-Gly-CO-Ala-AMC]",–,0.183,>261.8,4.8,< 10 µM and 5.91 µM,> 100,> 10,> 10,>54.6,0.0382,193 to 195,–,–,–,–

# Continued, values first:
SI hCA IX over hCA I or hCA II (hCA IX),Ki (hCA IX) [µM],SI hCA XII over hCA I or hCA II (hCA XII),SI hCA XII over hCA IX (hCA XII),IC50 (hMAO-A; [1]),IC50 (hMAO-B) [µM],Ki (hCA II) [µM],Ki (hCA I) [µM],SI hCA IX over hCA I or hCA II (hCA IX; [2]),Ki (hCA XII) [µM],melting point [°C],Ki (hCA XII; [3]) [µM],"SI MAO-B/MAO-A (hMAO-A; IC50 MAO-B/IC50 MAO-A, selectivity for hMAO-A)",MAO-A (IC50 μM) (hMAO-A; [1]),MAO-B (IC50 μM) (hMAO-B),SMILES
–,0.163,>1041.7,17.0,69.6 ± 9.28 µM,58.6 ± 24,> 10,> 10,>61.2,0.0096,193 to 195,–,–,–,–,"COC(=O)[C@H](C)NC(=O)N[C@@H](C)C(=O)Nc1ccc2c(C)cc(=O)oc2c1 [Compound 17, MeO-Ala-CO-Ala-AMC]"
–,0.0936,>250.0,2.3,21.8 ± 0.092 µM,78 ± 22.3,> 10,> 10,>106.8,0.04,177 to 183,–,–,–,–,"COC(=O)[C@H](Cc1ccccc1)NC(=O)N[C@@H](C)C(=O)Nc1ccc2c(C)cc(=O)oc2c1 [Compound 18, MeO-Phe-CO-Ala-AMC]"
–,0.261,>1052.6,27.4,> 100 µM,> 100,> 10,> 10,>38.4,0.0095,182 to 183,–,–,completely devoid of activity,completely devoid of activity,"CCOC(=O)CCNC(=O)N[C@@H](C)C(=O)Nc1ccc2c(C)cc(=O)oc2c1 [Compound 19, EtO-βAla-CO-Ala-AMC]"
–,0.027,>182.8,0.5,> 100 µM,75.3 ± 0.976,> 10,> 10,>370.4,0.0547,148 to 150,–,–,–,–,"COCc1cc(=O)oc2cc(NC(=O)[C@H](C)NC(=O)N[C@@H](C)C(=O)OC)ccc12 [Compound 20, MeO-Ala-CO-Ala-AMMC]"
